Experimental data from ChEMBL document CHEMBL1150233, “Circumdatin G, a new alkaloid from the fungus Aspergillus ochraceus” (J Nat Prod, 2001).

assay: Inhibition of HCV protease; parameters: species or system Hepacivirus hominis

Row | Structure (SMILES) | IC50 [µM]
1 | CCCC(=O)c1cc2c(c(O)c1C)C(=O)C(=O)c1c(O)cccc1-2 | 7.7
2 | CC1Cc2cccc(O)c2C(=O)O1 (stereo not drawn) [MELLEIN] | 35
3 | O=C1C=C2C(=CCOC2O)O1 (stereo not drawn) [PATULIN] | 24.7
